{
  "source": "patent US20090239891A1",
  "about": "(priority 2006, published 2009)",
  "assay": "Analgesic effect (% MPE) by tail flick method after intravenous injection",
  "format": "in vivo",
  "conditions": "mice",
  "data": [
    {"substance": "buprenorphine hydrochloride", "values": [
      {"measurement": "% MPE", "setting": "0.08 hours after i.v. 2.4 mg/kg", "result": 0, "unit": "%"},
      {"measurement": "% MPE", "setting": "0.25 hours after i.v. 2.4 mg/kg", "result": 53.7, "unit": "%"},
      {"measurement": "% MPE", "setting": "0.5 hours after i.v. 2.4 mg/kg", "result": 96.3, "unit": "%"},
      {"measurement": "% MPE", "setting": "1 hour after i.v. 2.4 mg/kg", "result": 100, "unit": "%"},
      {"measurement": "% MPE", "setting": "2 hours after i.v. 2.4 mg/kg", "result": 77.4, "unit": "%"},
      {"measurement": "% MPE", "setting": "3 hours after i.v. 2.4 mg/kg", "result": 93.3, "unit": "%"},
      {"measurement": "% MPE", "setting": "5 hours after i.v. 2.4 mg/kg", "result": 100, "unit": "%"},
      {"measurement": "% MPE", "setting": "7 hours after i.v. 2.4 mg/kg", "result": 72.7, "unit": "%"},
      {"measurement": "% MPE", "setting": "9 hours after i.v. 2.4 mg/kg, hydrochloride, 2.4 mg/kg", "result": 54, "unit": "%"},
      {"measurement": "% MPE", "setting": "9 hours after i.v. 2.4 mg/kg, listed as buprenorphine, hydrochloride, 2.4 mg/kg", "result": 54.4, "unit": "%"},
      {"measurement": "% MPE", "setting": "12 hours after i.v. 2.4 mg/kg, hydrochloride, 2.4 mg/kg", "result": 0, "unit": "%"},
      {"measurement": "% MPE", "setting": "12 hours after i.v. 2.4 mg/kg, listed as buprenorphine, hydrochloride, 2.4 mg/kg", "result": 8.1, "unit": "%"},
      {"measurement": "% MPE", "setting": "18 hours after i.v. 2.4 mg/kg", "result": 0, "unit": "%"},
      {"measurement": "% MPE", "setting": "24 hours after i.v. 2.4 mg/kg", "result": 0, "unit": "%"},
      {"measurement": "onset of analgesic effect", "setting": "after i.v. 2.4 mg/kg", "result": 15, "unit": "min"},
      {"measurement": "duration of analgesic effect", "setting": "after i.v. bolus 2.4 mg/kg", "result": 9, "unit": "h"},
      {"measurement": "analgesic effect observed", "setting": "between 12 and 24 hours after i.v. 2.4 mg/kg", "result": "No analgesic effect"}
    ]}
  ]
}
